# In patent publication US20180318199A1, “Pharmaceutical Composition Having Anti-Aging Properties against High-Glucose” (TAIWAN LEADER BIOTECH CORP., priority 2017, published 2018):
# “Also recorded” adds a separate entry of the source.
# How the values were obtained:
# Format in all cases: cell-based, human
# HNDFs [1] = experiment: SA-β-gal senescence assay in HG-induced HNDFs; conditions: 72 h
# Method: Next, the protective effects of antcins on HG-induced HNDF senescence are examined. In FIG. 2B, cells were incubated with ANA (10 μM), ANH (10 μM) and ANM (10 μM) in the presence of HG (30 mM) for 72 h. Cellular senescence is determined by SA-β-gal activity. […] After cells are co-incubated with HG and antcins (ANA, ANH and ANM) for 72 h, senescence is measured by SA-β-gal assay.
# Therefore, in order to examine whether the ROS inhibitory effect may be extended to suppress HG-induced senescence, HG-induced senescenece eliminated by ANM is examined. In FIG. 4B, HNDFs are incubated with ANM (10 μM) or NAC (100 μM) in the presence or absence of HG (30 mM) for 72 h. Cellular senescence is determined by SA-β-gal assay. […] As is shown, cells are co-incubated with HG and ANM or NAC for 72 h.
# Senescence-associated β-galactosidase (SA-β-gal) activity is determined in formaldehyde-fixed histochemical staining kit according to the manufacturer's instructions (Cell Signaling Technology, Danvers, Calif.). Briefly, cells are grown in 6-well plates at a density of 5×10^4 cells/well, and incubated with HG or test samples for 48 h (HUVECs) or 72 h (HNDFs). After incubation, cells are stained with SA-β-gal staining solution at pH 6.0 overnight and then the development of blue staining is observed and photographed under a bright-field microscope (Motic Electric Group, Xiamen, P.R. China).
# p53 and FoxO1 = experiment: Western blot of p53 and FoxO1 acetylation in HUVECs; conditions: ANM 10 μM + HG 30 mM
# Method: (§1) Please refer to FIG. 9A˜FIG. 9H, which are views showing HG-induced senescence prevented by ANM in human umbilical vein endothelial cells (HUVECs). As shown in the figures, to further delineate the protective effects of ANM on another cell system, experiments are designed to investigate the protective effect of ANM on HUVECs incubated in media containing either NG or HG alone or with ANM for 48 h. Cell viability is measured by MTT assay. […] Cell viability is determined by MTT assay. Percentage of viable cells are normalized with control cells (NG). […] In addition, in FIG. 9B, cellular senescence is determined by SA-β-gal activity assay. […] In addition, in FIG. 9C and FIG. 9D, total cell lysate is extracted and senescence-associated marker proteins including p16^INK4A, p21^CIP1 total and acetylated p53 and FoxO1 are measured by western blot analysis.
# Cells are lysed by either RIPA lysis buffer or nuclear and cytoplasmic extraction reagents (Thermo Fisher Scientific). Protein concentrations are determined by Bio-Rad protein assay reagent (Bio-Rad Laboratories, Hercules, Calif.). […] The blots are detected using VL Chemi-Smart 3000 (Viogene Biotek, Sunnyvale, Calif.) with the enhanced chemiluminescence (ECL) western blotting reagent (Millipore, Billerica, Mass.).
# HUVECs = experiment: MTT cell viability in HUVECs; conditions: 48 h
# Method: as §1
# Cell viability is assessed by MTT colorimetric assay. Briefly, HNDFs (2×10^4cells/well) or HUVECs (5×10^4 cells/well) are seeded in a 24-well culture plate. […] The MTT formazan crystals are dissolved in 400 μL of DMSO and the samples are measured at 570 nm (A540) using an ELISA microplate reader (Bio-Tek Instruments, Winooski, Vt.). The percentage of cell viability (%) is calculated as (A570 of treated cells/A570 of untreated cells)×100.
# HNDFs [2] = experiment: Trypan blue exclusion cell proliferation assay in HNDFs; conditions: 72 h
# Method: To further clarify the effect of antcins, HG-induced reduction in cell proliferation is determined. In FIG. 2D, to determine the effect of antcins on cell proliferation efficacy, 5×10^4 cells/well of HNDFs are incubated with antcins in 6-well plates in the presence of HG (30 mM) for 72 h. Number of viable cells is quantified by the tryphan blue exclusion method. Results are expressed as mean±S.E.M of three indipendent expriments. Statistical significance is set at ^ϕP<0.05 as compared to NG vs. HG and *P<0.05 as compared to HG vs. samples. […] Therefore, the molecular mechanism underlying the protective effect of ANM is explored next.
# Furthermore, in FIG. 3C, to determine the effect of ANM or NAC on cell proliferation, 5×10^4 cells/well of HNDFs are incubated in a 6-well plate with ANM (10 μM) or NAC (100 μM) in the presence of HG (30 mM) for 72 h. Number of viable cells is quantified by the tryphan blue exclusion method. Results expressed as mean±S.E.M of three independent experiments. Statistical significance is set at ^ϕP<0.05 as compared to NG vs. HG and *P<0.05 as compared to HG vs. samples.
# Cell proliferation is evaluated using trypan blue exclusion assay as described previously with minor modification. Cells are plated into 6-well plates at a density of 5×10^4 cells/well. After incubation overnight, cells are treated with test samples in the presence or absence of HG for 24-72 h. Cells exposed to 0.2% Trypan blue are then counted in a hemocytometer, and cells stained with Trypan blue are excluded. Percentage of viable cells is calculated based on the ratio of viable cells to total cell population in each well. The proliferation rate is calculated based on the number of viable cells in HG or sample-treated groups versus the NG-treated group.
structure (smiles),measurement,setting,value
"C=C(CCC(C)C1CCC2C3=C(C(=O)C(O)C21C)C1(C)CCC(O)C(C)C1CC3)C(C)C(=O)O (centres unmarked) [ANM, antcin M]",SA-β-gal positive cells,"HNDFs [1]; 10 μM compound + HG 30 mM, HG alone 9.59-fold (FIG. 2B)",1.51 fold
same,"HG-induced senescence (SA-β-gal activity), control siRNA cells (SIRT-1 experiment)",HNDFs [1]; ANM 10 μM + HG,significantly inhibits
same,"HG-induced senescence (SA-β-gal), control siRNA cells (Nrf2 experiment)",HNDFs [1]; ANM 10 μM + HG,significantly inhibits
same,"HG-induced senescence (SA-β-gal), siNrf2-transfected cells",HNDFs [1]; ANM 10 μM + HG,significantly prevents
same,SA-β-gal positive cells,"HNDFs [1]; ANM 10 μM or NAC 100 μM + HG 30 mM, HG alone 5.72-fold (FIG. 4B)",1.89 fold
same,"SA-β-gal activity, SIRT-1 siRNA transfected cells",HNDFs [1]; ANM 10 μM or RES + HG,remains partially elevated
same,HG-induced p53 and FoxO1 acetylation in HUVECs,p53 and FoxO1,significantly blocks
same,number of viable HUVECs under HG,"HUVECs; ANM 10 μM or RES 5 μM + HG 30 mM, HG alone 35.01%",79.78%
same,"cell viability of HUVECs, compound alone",HUVECs; ANM 10 μM or RES 5 μM,does not affect cell viability
same,"HG-induced reduction in cell number, control siRNA cells",HNDFs [2]; ANM 10 μM + HG,significantly blocked
same,"protection of cell number, SIRT-1 siRNA transfected cells",HNDFs [2]; ANM 10 μM + HG,partial protection
same,"HG-induced reduction in cell proliferation, Nrf2 knock-down cells",HNDFs [2]; ANM + HG,partially inhibited
same,"cell proliferation, Nrf2 and SIRT-1 knock-down cells",HNDFs [2]; ANM + HG,fails to rescue
same,cell proliferation (number of viable cells) vs HG group,"HNDFs [2]; antcins 10 μM + HG 30 mM, trypan blue exclusion",two-fold increase; also recorded: increased cell proliferation
